Test results from article PMC6424464, “Multiple functional neurosteroid binding sites on GABAA receptors” (PLoS Biology, 2019).

Experiments:
[1] = target: T1, GABAA receptor α1 subunit (Homo sapiens, UniProt P14867); experiment: biochemical; design: gene GABRA1
T1 sequence (P14867 28-456): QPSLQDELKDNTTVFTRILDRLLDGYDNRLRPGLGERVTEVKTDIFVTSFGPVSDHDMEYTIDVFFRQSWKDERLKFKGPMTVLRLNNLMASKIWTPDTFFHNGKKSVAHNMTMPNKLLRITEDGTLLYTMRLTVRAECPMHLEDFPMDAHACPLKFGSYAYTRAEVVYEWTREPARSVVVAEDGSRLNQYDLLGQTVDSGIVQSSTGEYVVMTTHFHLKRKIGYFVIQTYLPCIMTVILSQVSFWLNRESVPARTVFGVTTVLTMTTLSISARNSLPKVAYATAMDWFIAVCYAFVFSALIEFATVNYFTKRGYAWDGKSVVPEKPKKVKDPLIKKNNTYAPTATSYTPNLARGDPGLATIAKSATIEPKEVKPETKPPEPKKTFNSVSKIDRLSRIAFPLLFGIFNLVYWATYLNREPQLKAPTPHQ
T1 sequence (P28472 26-473 partner): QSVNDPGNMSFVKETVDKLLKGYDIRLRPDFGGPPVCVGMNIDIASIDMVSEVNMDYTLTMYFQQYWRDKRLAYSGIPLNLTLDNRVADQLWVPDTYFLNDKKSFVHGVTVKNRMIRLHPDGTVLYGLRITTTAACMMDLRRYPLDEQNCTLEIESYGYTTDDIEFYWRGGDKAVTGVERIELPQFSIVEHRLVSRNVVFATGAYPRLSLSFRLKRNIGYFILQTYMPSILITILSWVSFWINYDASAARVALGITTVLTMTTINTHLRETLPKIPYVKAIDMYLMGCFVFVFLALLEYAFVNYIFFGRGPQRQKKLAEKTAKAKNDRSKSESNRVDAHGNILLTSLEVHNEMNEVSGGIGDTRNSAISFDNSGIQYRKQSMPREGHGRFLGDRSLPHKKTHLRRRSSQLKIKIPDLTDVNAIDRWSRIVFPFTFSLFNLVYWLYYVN

[2] = target: T2, GABAA receptor β3 subunit (Homo sapiens, UniProt P28472); experiment: biochemical
T2 construct: gene GABRB3

[3] = target: T1, GABAA receptor α1 subunit; experiment: competition of KK123 photolabeling at α1-Y415; [3H]muscimol binding enhancement; oocyte electrophysiology with site mutants; design: gene GABRA1; α1His-FLAG β3 receptor in HEK-293 cell membranes; with GABAA receptor β3 subunit (GABRB3)
[4] = target: T3, α1β3 GABAA receptor (β3 subunit) (Homo sapiens, UniProt P14867+P28472); experiment: competition of KK123, KK200 and KK202 photolabeling on β[…]; [3H]muscimol binding enhancement; design: gene GABRB3; α1His-FLAG β3 receptor in HEK-293 cell membranes; with GABAA receptor α1 subunit (GABRA1)
T3 sequence (P28472 26-473): T1 sequence (P28472 26-473 partner)
T3 sequence (P14867 28-456): T1 sequence (P14867 28-456)

[5] = target: T4, GABAA receptor β3 subunit (Homo sapiens, UniProt P28472); experiment: photoaffinity labeling with middle-down MS, competed by allopregnanolone; EC50 from [3H]muscimol binding enhancement (whole α[…]β[…] receptor)
T4 construct: gene GABRB3; α1His-FLAG β3 receptor in HEK-293 cell membranes; adduct in TM3 peptide 278-313; with GABAA receptor α1 subunit (GABRA1)
T4 sequence (P28472 26-473): T1 sequence (P28472 26-473 partner)
T4 sequence (P14867 28-456 partner): T1 sequence (P14867 28-456)

[6] = target: T3, α1β3 GABAA receptor (β3 subunit); experiment: two-electrode voltage clamp, potentiation and direct activation; type: cell-based; design: gene GABRB3; α1β3 receptors expressed in X. laevis oocytes; with GABAA receptor α1 subunit (GABRA1)
[7] = target: T1, GABAA receptor α1 subunit; experiment: photoaffinity labeling ([…]) with middle-down MS; EC50 from [3H]muscimol binding enhancement (whole α[…]β[…] receptor); design: gene GABRA1; α1His-FLAG β3 receptor in HEK-293 cell membranes; adduct in TM4 peptide 398-423; with GABAA receptor β3 subunit (GABRB3)
[8] = target: T5, GABAA receptor β3 subunit (Homo sapiens, UniProt P14867+P28472); experiment: photoaffinity labeling with middle-down MS, competed by allopregnanolone; EC50 from [3H]muscimol binding enhancement (whole α[…]β[…] receptor)
T5 construct: gene GABRB3; α1His-FLAG β3 receptor in HEK-293 cell membranes; adduct in TM3 peptide 280-313; with GABAA receptor α1 subunit (GABRA1)
T5 sequence (P28472 26-473): T1 sequence (P28472 26-473 partner)
T5 sequence (P14867 28-456): T1 sequence (P14867 28-456)

Work on `C#CCCO[C@H]1C[C@]2(C)C3CC[C@@]4(C)C(CC[C@@H]4OC)C3CC3(N=N3)C2C[C@@H]1O` (some centres unmarked) [KK123] yielded an EC50 [1] of 1600 ± 200 nM and an EC50 [2] of 1600 ± 200 nM.
`CC(=O)[C@H]1CC[C@H]2[C@@H]3CC[C@H]4C[C@H](O)CC[C@]4(C)[C@H]3CC[C@]12C` [AlloP, 3α-hydroxy-5α-pregnan-20-one] was tested, and the EC50 [3] was 3.9 ± 5.6 µM and the EC50 [4] was 3.9 ± 5.6 µM.
For `C#CCO[C@H]1CCC2C3CCC4C[C@H](OCc5ccc(C6(C(F)(F)F)N=N6)cc5)CC[C@]4(C)C3CC[C@@]21C` (some centres unmarked) [KK202], the EC50 [5] was 1100 ± 270 nM.
For `CC(C)c1cccc(C(C)C)c1O` [propofol], the “two-electrode voltage clamp, potentiation and direct activation” value [6] was “Propofol action was not different between the mutant and wild-type receptors, indicating a selective effect on neurosteroid action”.
With `C[C@]12CC[C@@H](O)CC1CCC1C2CC[C@@]2(C)C1CC[C@@H]2OCc1ccc(C2(C(F)(F)F)N=N2)cc1` (some centres unmarked) [KK200] the EC50 [7] was 540 ± 180 nM and the EC50 [8] was 540 ± 180 nM.
